Assays:
[1] = biological target: T1, CnHsp90 (heat shock protein 90) (Cryptococcus neoformans, UniProt J9VVA4); assay: intrinsic tryptophan fluorescence quenching; also inhibits ATPase activity of the purified protein (IC50 […] at […]°C, […] at […]°C); type: binding
T1 construct: gene CNAG_06150; recombinant CnHsp90 6x-His tag fusion protein (2157 bp amplified product in pRSET-A)

[2] = biological target: T1, CnHsp90 (heat shock protein 90); assay: intrinsic tryptophan fluorescence quenching; also hydrolysis of γ-32P-ATP (Km […] at […]°C, […] at […]°C); type: binding

T1 sequence (J9VVA4 entry or part of it): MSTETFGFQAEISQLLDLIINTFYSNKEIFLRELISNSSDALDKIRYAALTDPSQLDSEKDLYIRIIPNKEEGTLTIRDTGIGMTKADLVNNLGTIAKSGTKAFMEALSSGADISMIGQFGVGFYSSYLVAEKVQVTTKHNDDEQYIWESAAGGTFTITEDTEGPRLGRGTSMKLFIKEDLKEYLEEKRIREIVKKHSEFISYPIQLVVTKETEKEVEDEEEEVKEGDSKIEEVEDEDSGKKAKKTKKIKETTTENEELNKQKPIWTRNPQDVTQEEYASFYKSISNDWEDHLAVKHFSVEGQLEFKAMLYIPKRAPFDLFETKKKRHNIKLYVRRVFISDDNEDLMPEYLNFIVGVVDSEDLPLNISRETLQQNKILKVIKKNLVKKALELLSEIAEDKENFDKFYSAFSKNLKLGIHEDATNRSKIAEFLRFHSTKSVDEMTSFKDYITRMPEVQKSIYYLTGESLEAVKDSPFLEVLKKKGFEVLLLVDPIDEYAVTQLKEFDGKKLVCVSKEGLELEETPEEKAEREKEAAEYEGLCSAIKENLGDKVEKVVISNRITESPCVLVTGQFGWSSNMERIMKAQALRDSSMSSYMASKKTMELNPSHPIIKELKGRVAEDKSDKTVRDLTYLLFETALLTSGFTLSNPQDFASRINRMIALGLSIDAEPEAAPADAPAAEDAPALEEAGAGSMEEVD

Q: `C=CCNC1=C2C[C@@H](C)C[C@H](OC)[C@H](O)[C@@H](C)/C=C(\C)[C@H](OC(N)=O)[C@@H](OC)/C=C\C=C(/C)C(=O)NC(=CC1=O)C2=O` [17-AAG] was tested. Which Kd [1] did it give?
A: 12.9 µM

Q: How did the Kd [2] turn out when `Nc1ncnc2c1ncn2[C@@H]1O[C@H](COP(=O)(O)OP(=O)(O)OP(=O)(O)O)[C@@H](O)[C@H]1O` [ATP] was run?
A: 497 µM
